Assay results from patent US20080045498A1, “[…] INHIBITORS” (Genelabs Technologies, Inc., priority 2006, published 2008).

What follows are compounds tested on HCV RNA dependent RNA polymerase (assay: HCV replicon assay (luciferase, Huh-lucubineo-ET cells)). Conditions: Hepatitis C virus; tested at 25 μM; ET (Huh-lucubineo-ET) replicon cell line; luciferase activity measured 48-72 hours after compound addition; relative to no compound control.
Type: cell-based
Procedure: A cell line, ET (Huh-lucubineo-ET) was used for screening of compounds for inhibiting HCV RNA dependent RNA polymerase. The ET cell line was stably transfected with RNA transcripts harboring a I389luc-ubi-neo/NS3-3′/ET; replicon with firefly luciferase-ubiquitin-neomycin phosphotransferase fusion protein and EMCV-IRES driven NS3-5B polyprotein containing the cell culture adaptive mutations (E1202G; T1280I; K1846T) (Krieger at al, 2001 and unpublished). The ET cells were grown in DMEM (Dulbeco's Modified Eagle's Medium), supplemented with 10% fetal calf serum, 2 mM Glutamine, Penicillin (100 IU/mL)/Streptomycin (100 μg/mL), 1× nonessential amino acids, and 250 μg/mL G418 (“Geneticin”). Reagents are all available through Life Technologies (Bethesda, Md.). The cells were plated at 0.5−1.0×10^4 cells/well in the 96 well plates and incubated for 24 hrs before adding test compound. The compounds were added to the cells to achieve a final concentration of 0.1 nM to 50 μM and a final DMSO (dimethylsulfoxide) concentration of 0.5%. Luciferase activity was measured 48-72 hours later by adding a lysis buffer and the substrate (Catalog number Glo-lysis buffer E2661 and Bright-Glo luciferase system E2620 Promega, Madison, Wis.). Cells should not be too confluent during the assay. Percent inhibition of replication data is plotted relative to no compound control. Under the same condition, cytotoxicity of the compounds were determined using cell proliferation reagent, WST-1 (Roche, Germany). The compounds showing antiviral activities, but no significant cytotoxicities were chosen to determine EC50 and TC50 the effective concentration and toxic concentration at which 50% of the maximum inhibition is observed. For these determinations, a 10 point, 2-fold serial dilution for each compound was used, which spans a concentration range of 1000 fold. EC50 and similarly TC50 values were calculated by fitting % inhibition at each concentration to the following equation: % inhibition=100%/[(EC50/[I])b+1] where b is Hill's coefficient.
In the case of `COc1ccc2cc3n(c2c1)CCCCn1c-3c(C2CCCCC2)c2ccc(C(=O)O)cc21` [Compound 235], the inhibition at 25 µM is reported as 99%. For `O=C(O)c1ccc2c(C3CCCCC3)c3n(c2c1)CCCCn1c-3cc2ccc(OCc3ccccc3)cc21` [Compound 232], the inhibition at 25 µM was 91%. Work on `O=C(O)c1ccc2c(C3CCCCC3)c3n(c2c1)CCCCn1c-3cc2ccccc21` [Compound 228] yielded an inhibition at 25 µM of 97%. Work on `COc1ccc2c(c1)cc1n2CCCCn2c-1c(C1CCCCC1)c1ccc(C(=O)O)cc12` [Compound 233] yielded an inhibition at 25 µM of 96%. With `Cc1nc(C)c(-c2ccc3c4c(ccc3n2)-c2c(C3CCCCC3)c3ccc(C(=O)O)cc3n2CC(=O)N4)s1` [Compound 237] the inhibition at 25 µM was 100%. In the case of `O=C(O)c1ccc2c(C3CCCCC3)c3n(c2c1)CCCCCn1c-3cc2ccccc21` [Compound 229], the inhibition at 25 µM is reported as 86%. Work on `O=C(O)c1ccc2c(C3CCCCC3)c3n(c2c1)CCCn1c-3nc2ccccc21` [Compound 225] yielded an inhibition at 25 µM of 7%. For `O=C(O)c1ccc2c(C3CCCCC3)c3n(c2c1)CCCCn1c-3cc2cc(O)ccc21` [Compound 234], the inhibition at 25 µM was 99%. `O=C(O)c1ccc2c(C3CCCCC3)c3n(c2c1)CCCCn1c-3cc2cc(OCc3ccccc3)ccc21` [Compound 231] showed an inhibition at 25 µM of 96%. With `O=C(O)c1ccc2c(C3CCCCC3)c3n(c2c1)CCCn1c-3cc2ccccc21` [Compound 227] the inhibition at 25 µM was 94%. Compound `O=C(O)c1ccc2c(C3CCCCC3)c3n(c2c1)CCCCn1c-3cc2ccc(O)cc21` [Compound 236] has an inhibition at 25 µM of 100%. For `O=C(O)c1ccc2c(C3CCCCC3)c3n(c2c1)CCCCn1c-3nc2ccccc21` [Compound 226], the inhibition at 25 µM was 23%. Compound `O=C(O)c1ccc2c(C3CCCCC3)c3n(c2c1)CCCCn1c-3cc2c(OCc3ccccc3)cccc21` [Compound 230] has an inhibition at 25 µM of 75%.
